Test results as given in PubChem BioAssay (NCI).
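Test compounds were applied to cells in 96-well plates for 48 hours at 5 doses. GI50: concentration for 50% inhibition of growth. The concentration for full growth arrest is given as TGI.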

What was measured:
Test in all cases: growth of human tumour cells (NCI), 48 h
[1] = system: 786-0 renal
[2] = system: A498 renal
[3] = system: A549 NSCLC
[4] = system: ACHN renal
[5] = system: BT-549 breast
[6] = system: CAKI-1 renal
[7] = system: CCRF-CEM leukemia
[8] = system: COLO 205 colon
[9] = system: DU-145 prostate
[10] = system: HCC-2998 colon
[11] = system: HCT-116 colon
[12] = system: HCT-15 colon
[13] = system: HL-60(TB) leukemia
[14] = system: HOP-62 NSCLC
[15] = system: HOP-92 NSCLC
[16] = system: HS 578T breast
[17] = system: HT29 colon
[18] = system: IGROV1 ovarian
[19] = system: K-562 leukemia
[20] = system: KM12 colon
[21] = system: LOX IMVI melanoma
[22] = system: M14 melanoma
[23] = system: MALME-3M melanoma
[24] = system: MCF7 breast
[25] = system: MDA-MB-231 breast
[26] = system: MDA-MB-435
[27] = system: MOLT-4 leukemia
[28] = system: NCI-H226 lung

SMILES: O=C(Nc1ccc(CN2CCOCC2)cc1)c1ccc(-c2cc(Cl)ccc2Cl)o1
- GI50 [1]: 11.8 µM
- TGI [1]: 26.1 µM
- GI50 [2]: 10 µM
- TGI [2]: 22.1 µM
- GI50 [3]: 7.48 µM
- TGI [3]: 32.4 µM
- GI50 [4]: 18.4 µM
- TGI [4]: 97.9 µM
- GI50 [5]: 7.79 µM
- TGI [5]: 43.1 µM
- GI50 [6]: 13 µM
- TGI [6]: 56.4 µM
- GI50 [7]: 6.02 µM
- TGI [7]: 49.1 µM
- GI50 [8]: 2.24 µM
- TGI [8]: 4.19 µM
- GI50 [9]: 18 µM
- TGI [9]: 63.3 µM
- GI50 [10]: 9.29 µM
- TGI [10]: 23 µM
- GI50 [11]: 5.92 µM
- TGI [11]: 21.4 µM
- GI50 [12]: 3.29 µM
- TGI [12]: 34.4 µM
- GI50 [13]: 4.45 µM
- TGI [13]: 20.9 µM
- GI50 [14]: 15.5 µM
- TGI [14]: 38.5 µM
- GI50 [15]: 10.2 µM
- TGI [15]: 33.7 µM
- GI50 [16]: 12.5 µM
- TGI [16]: 34.4 µM
- GI50 [17]: 2.96 µM
- TGI [17]: 12 µM
- GI50 [18]: 23.5 µM
- TGI [18]: 61.6 µM
- GI50 [19]: 2 µM
- TGI [19]: 6.09 µM
- GI50 [20]: 4.41 µM
- TGI [20]: 16.3 µM
- GI50 [21]: 2.65 µM
- TGI [21]: 13 µM
- GI50 [22]: 11.1 µM
- TGI [22]: 32.4 µM
- GI50 [23]: 8.74 µM
- TGI [23]: 29.2 µM
- GI50 [24]: 9.98 µM
- TGI [24]: 26.3 µM
- GI50 [25]: 10.7 µM
- TGI [25]: 29.5 µM
- GI50 [26]: 11.6 µM
- TGI [26]: 29.2 µM
- GI50 [27]: 4.34 µM
- TGI [27]: 20.5 µM
- GI50 [28]: 12.2 µM
- TGI [28]: 33.6 µM
